Target: T1, Calmodulin-domain protein kinase 1 (Toxoplasma gondii, UniProt Q9BJF5)
T1 sequence (Q9BJF5 whole entry): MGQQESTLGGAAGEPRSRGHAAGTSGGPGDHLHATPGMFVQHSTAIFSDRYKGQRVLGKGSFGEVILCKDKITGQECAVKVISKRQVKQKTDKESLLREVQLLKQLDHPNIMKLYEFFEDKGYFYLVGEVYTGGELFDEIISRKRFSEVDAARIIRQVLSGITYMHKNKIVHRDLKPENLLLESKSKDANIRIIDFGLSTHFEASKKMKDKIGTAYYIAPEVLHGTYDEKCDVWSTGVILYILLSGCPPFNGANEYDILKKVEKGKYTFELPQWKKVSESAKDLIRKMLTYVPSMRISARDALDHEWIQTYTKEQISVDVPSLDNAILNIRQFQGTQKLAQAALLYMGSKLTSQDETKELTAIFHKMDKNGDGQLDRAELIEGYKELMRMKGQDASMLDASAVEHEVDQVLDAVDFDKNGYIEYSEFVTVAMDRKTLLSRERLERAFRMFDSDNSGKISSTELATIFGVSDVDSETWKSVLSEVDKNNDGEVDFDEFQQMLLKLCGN
Test: Inhibition Assay
Experimental: Certain of the compounds prepared as described above were assayed to determine their IC50 for inhibition of T. gondii CDPK1 (tgCDPK1). At least three independent replicates of the assay were conducted for each compound tested.

SMILES | IC50 [µM]
N#Cc1cccc(Oc2nn([C@H]3C[C@H](F)C3)c3ncnc(N)c23)c1 [US11518761, Example 173] | 0.0498
N#Cc1cccc(Oc2nn([C@H]3C[C@H](O)C3)c3ncnc(N)c23)c1 [US11518761, Example 178] | 0.0796

From BindingDB's records for patent US11518761 (Vyera Pharmaceuticals, 2022)
